In the NIST ThermoML archive (doi:10.1021/je800616p):

Assay: mn = molality of the nth substance listed, in mol/kg
Details: 101 kPa, Liquid; for viscosity: Capillary tube (Ostwald / Ubbelohde) method; for mass density: Vibrating tube method

NC(=O)c1ccccc1O [2-hydroxybenzamide] + CO
Details	mass density [kg/m3]	viscosity [mPa·s]
293.15 K, m1 = 0.0095	792.015	0.597
293.15 K, m1 = 0.0126	792.215	0.5976
293.15 K, m1 = 0.0158	792.352	0.5981
293.15 K, m1 = 0.019	792.555	0.5987
293.15 K, m1 = 0.0221	792.688	0.5993
293.15 K, m1 = 0.0253	792.801	0.5997
293.15 K, m1 = 0.0317	792.965	0.6008
298.15 K, m1 = 0.0095	787.285	0.5471
298.15 K, m1 = 0.0126	787.479	0.5475
298.15 K, m1 = 0.0158	787.615	0.548
298.15 K, m1 = 0.019	787.819	0.5485
298.15 K, m1 = 0.0222	787.921	0.549
298.15 K, m1 = 0.0253	788.019	0.5495
298.15 K, m1 = 0.0317	788.218	0.5503
303.15 K, m1 = 0.0095	782.541	0.5003
303.15 K, m1 = 0.0127	782.725	0.5005
303.15 K, m1 = 0.0159	782.859	0.5007
303.15 K, m1 = 0.0191	783.029	0.5009
303.15 K, m1 = 0.0223	783.149	0.5012
303.15 K, m1 = 0.0255	783.261	0.5015
303.15 K, m1 = 0.0319	783.449	0.5019
308.15 K, m1 = 0.0096	777.775	0.4852
308.15 K, m1 = 0.0128	777.951	0.4853
308.15 K, m1 = 0.016	778.085	0.4855
308.15 K, m1 = 0.0192	778.255	0.4857
308.15 K, m1 = 0.0224	778.368	0.4859
308.15 K, m1 = 0.0256	778.495	0.4862
308.15 K, m1 = 0.0321	778.659	0.4866
310.15 K, m1 = 0.0097	775.881	0.4602
310.15 K, m1 = 0.0129	776.055	0.4603
310.15 K, m1 = 0.0161	776.195	0.4604
310.15 K, m1 = 0.0193	776.355	0.4607
310.15 K, m1 = 0.0218	776.449	0.4608
310.15 K, m1 = 0.0258	776.585	0.4609
310.15 K, m1 = 0.0323	776.765	0.4612
313.15 K, m1 = 0.0097	775.744	0.4502
313.15 K, m1 = 0.013	775.898	0.4503
313.15 K, m1 = 0.0162	776.045	0.4504
313.15 K, m1 = 0.0194	776.165	0.4506
313.15 K, m1 = 0.0227	776.285	0.4508
313.15 K, m1 = 0.0259	776.375	0.4509
313.15 K, m1 = 0.0325	776.558	0.4511
